{
  "source": "patent US20080280906A1",
  "about": "“Imidazolyl-Pyrimidine Compounds for Use in the Treatment of Proliferative Disorders” (priority 2005, published 2008)",
  "target": "T1, CDK2/Cyclin E (Homo sapiens, UniProt P24941)",
  "T1 construct": "The open reading frames of CDK2 and Cyclin E were isolated by reverse transcriptase-PCR; made in house; host or cells: SF21 (Spodoptera frugiperda) insect cells, baculovirus co-infection",
  "assay": "in vitro kinase assay, Scintillation Proximity Assay (SPA), [γ-33-P]-ATP incorporation into GST-Rb",
  "assay_type": "biochemical",
  "conditions": "GST-Rb substrate, 0.2 μM ATP, 60 minutes room temperature, read-out: CDK2 inhibitory activity IC50",
  "method": "The compounds were tested in an in vitro kinase assay in 96 well format using Scintillation Proximity Assay (SPA—obtained from Amersham) for measuring incorporation of [γ-33-P]-Adenosine Triphosphate into a test substrate (GST-Retinoblastoma protein; GST-Rb). In each well was placed the compound to be tested (diluted in DMSO and water to correct concentrations) and in control wells either roscovitine as an inhibitor control or DMSO as a positive control. […]\nThe plates were sealed with Topseal-S plate sealers, left for two hours then spun at 2500 rpm, 1124×g., for 5 minutes. The plates were read on a Topcount for 30 seconds per well. […]\nE. coli paste was resuspended in 10 ml/g of NETN buffer (50 mM Tris pH 7.5, 120 mM NaCl, 1 mM EDTA, 0.5% v/v NP-40, 1 mM PMSF, 1 ug/ml leupeptin, 1 ug/ml aprotinin and 1 ug/ml pepstatin) and sonicated for 2×45 seconds per 100 ml homogenate. […] The final product was analysed by Sodium Dodeca Sulfate (SDS) PAGE (Polyacrylamide gel) using 8-16% Tris-Glycine gels (Novex, San Diego, USA).\nThe open reading frames of CDK2 and Cyclin E were isolated by reverse transcriptase-PCR using HeLa cell and activated T cell mRNA as a template and cloned into the insect expression vector pVL1393 (obtained from Invitrogen 1995 catalogue number: V1392-20). […]",
  "data": [
    {"molecule": "Cc1ncc(-c2ccnc(Nc3ccc(C(=O)N4CCOCC4)cc3)n2)n1C(C)C", "note": "[Example 14]", "values": [
      {"measurement": "IC50", "value": 3, "unit": "nM"}
    ]}
  ]
}
